# Target: T1, hCB1 (Homo sapiens, UniProt P21554)
# T1 construct: made in house; host or cells: Sf9 insect cells (baculovirus), P2 membranes
# Assay: Agonist-induced GTP binding (GTPγ35S) assay at CB1, Example 8
# Type: biochemical
# Conditions: Table II; IC50 at CB1, GTP binding with 1 nM CP55,940; read-out: IC50
# Source text: As noted above, compounds provided herein are CB1 antagonists. Certain such compounds are non-competitive CB1 antagonists. In addition, or alternatively, certain compounds provided herein display CB1 specificity. CB1 antagonist activity may be confirmed using an agonist-induced GTP binding assay, such as the assay described in Example 8. Such assays employ a CB1-containing cell membrane preparation (e.g., a preparation of membranes of insect cells that recombinantly express CB1) to determine the effect of a test compound on CB1 agonist-induced GTP binding to CB1. Briefly, a first cell membrane preparation comprising CB1 is contacted with: (i) labeled GTP; (ii) a CB1 agonist; and (iii) a test compound to yield a test membrane preparation. Simultaneously, or in either order, a second cell membrane preparation comprising CB1 is contacted with: (i) labeled GTP; and (ii) a CB1 agonist to yield a control membrane preparation. The labeled GTP is preferably GTPγ^35S; a representative CB1 agonist is CP55,940. Such contact is performed under conditions that are suitable for GTP binding to CB1, such as the conditions described in Example 8. The concentrations of labeled GTP and CB1 agonist used are generally concentrations that are sufficient to result in a detectable increase in the amount of labeled GTP bound to the membrane preparation in the presence of CB1 agonist. Such concentrations may be determined by routine experimentation; representative suitable concentrations are provided in Example 8. Generally, a range of test compound concentrations is used (e.g., ranging from 10^−10M to 10^−5M).
# After sufficient contact (e.g., incubation) to allow GTP binding to the membrane preparations, a signal that corresponds to (represents) the amount of bound, labeled GTP is detected (typically, unbound labeled GTP is first removed via a washing step). In other words, simultaneously or in either order: (i) a test signal that represents an amount of bound, labeled GTP in the test membrane preparation is detected; and (ii) a control signal that represents an amount of bound, labeled GTP in the control membrane preparation is detected. The nature of the signal detected is determined by the type of label used. For example, if the GTP is radioactively labeled, the signal detected is radioactive decay (e.g., via liquid scintillation spectrometry). The CB1 antagonist activity of the test compound is then determined by comparing the test signal with the control signal.
# This assay can also be used to detect partial agonism mediated by antagonist compounds. A compound being analyzed in this assay is referred to herein as a “test compound.” Agonist-stimulated GTP binding activity is measured as follows: Four independent baculoviral stocks (one directing the expression of hCB1 and three directing the expression of each of the three subunits of a heterotrimeric G-protein) are used to infect a culture of Sf9 cells as described in Example 5.
# Agonist-stimulated GTP binding on purified membranes (as described in Example 6) is initially assessed using the cannabinoid agonist CP55,940 to ascertain that the receptor/G-protein-alpha-beta-gamma combination(s) yield a functional response as measured by GTP binding.
# P2 membranes are resuspended by Dounce homogenization (tight pestle) in GTP binding assay buffer (50 mM Tris pH 7.4, 120 mM NaCl, 5 mM MgCl2, 2 mM EGTA, 0.1% BSA, 0.1 mM bacitracin, 10 KIU/mL aprotinin, 5 μM GDP) and added to reaction tubes at a concentration of 10 μg protein/reaction tube. After adding increasing doses of the agonist CP55,940 at concentrations ranging from 10^−12 M to 10^−6 M, reactions are initiated by the addition of […] GTPγ^35S. In competition experiments, non-radiolabeled test compounds are added to separate assays at concentrations ranging from 10^−10 M to 10^−5 M along with 1 nM CP55,940 to yield a final volume of 0.25 mL. […]
# T1 sequence (P21554 whole entry): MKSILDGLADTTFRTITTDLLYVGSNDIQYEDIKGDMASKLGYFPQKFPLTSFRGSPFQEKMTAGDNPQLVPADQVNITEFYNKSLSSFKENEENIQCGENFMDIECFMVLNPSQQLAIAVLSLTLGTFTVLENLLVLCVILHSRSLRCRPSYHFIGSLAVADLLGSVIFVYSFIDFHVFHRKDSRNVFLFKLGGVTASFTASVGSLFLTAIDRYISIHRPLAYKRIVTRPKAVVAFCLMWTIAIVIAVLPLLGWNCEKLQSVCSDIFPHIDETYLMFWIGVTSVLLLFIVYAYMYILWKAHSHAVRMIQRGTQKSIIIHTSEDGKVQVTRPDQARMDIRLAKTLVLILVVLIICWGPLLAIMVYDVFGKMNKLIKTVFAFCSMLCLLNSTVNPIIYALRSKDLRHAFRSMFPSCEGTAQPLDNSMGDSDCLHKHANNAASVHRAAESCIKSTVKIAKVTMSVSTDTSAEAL
row,Structure (SMILES),IC50 [nM]
1,"O=C(Nc1ccc(OC(F)F)cc1)Nc1cccc(-c2cccnc2)c1 [Compound 63, N-[4-(difluoromethoxy)phenyl]-N′-(3-pyridin-3-ylphenyl)urea]",< 2000
2,"O=C(Nc1ccc(OC(F)F)cc1)Nc1cccc(-c2cncnc2)c1 [Compound 64, N-[4-(difluoromethoxy)phenyl]-N′-(3-pyrimidin-5-ylphenyl)urea]",< 2000
3,"O=C(Nc1ccc(OC(F)F)cc1)Nc1cccc(-c2cnccn2)c1 [Compound 65, N-[4-(difluoromethoxy)phenyl]-N′-(3-pyrazin-2-ylphenyl)urea]",< 2000
4,"O=C(Nc1ccc(OC(F)F)cc1)Nc1cccc(-c2ccc(C(F)(F)F)cn2)c1 [Compound 66, N-[4-(difluoromethoxy)phenyl]-N′-{3-[5-(trifluoromethyl)pyridin-2-yl]phenyl}urea]",< 2000
5,"O=C(Nc1ccc(OC(F)F)cc1)Nc1cccc(-c2ccc3ncccc3c2)c1 [Compound 67, N-[4-(difluoromethoxy)phenyl]-N′-(3-quinolin-6-ylphenyl)urea]",< 2000
6,"O=C(Nc1ccc(OC(F)F)cc1)Nc1cccc(-c2cncc3ccccc23)c1 [Compound 68, N-[4-(difluoromethoxy)phenyl]-N′-(3-isoquinolin-4-ylphenyl)urea]",< 2000
7,"O=C(Nc1ccc(OC(F)F)cc1)Nc1cccc(-c2cnc3ccccc3c2)c1 [Compound 69, N-[4-(difluoromethoxy)phenyl]-N′-(3-quinolin-3-ylphenyl)urea]",< 2000
8,Cc1ccc2cc(-c3cccc(NC(=O)Nc4ccc(OC(F)F)cc4)c3)ccc2n1 [Compound 70],< 2000
9,O=C(Nc1ccc(OC(F)F)cc1)Nc1cccc(-c2nccs2)c1 [Compound 71],< 2000
10,COc1ccc(-c2cccc(NC(=O)Nc3ccc(OC(F)F)cc3)c2)cn1 [Compound 72],< 2000
11,"N#Cc1cncc(-c2cccc(NC(=O)Nc3ccc(OC(F)F)cc3)c2)c1 [Compound 73, N-[3-(5-cyanopyridin-3-yl)phenyl]-N′-[4-(difluoromethoxy)phenyl]urea]",< 2000
12,"O=C(Nc1ccc(OC(F)F)cc1)Nc1cccc(-c2ccc(Cl)cn2)c1 [Compound 74, N-[3-(5-chloropyridin-2-yl)phenyl]-N′-[4-(difluoromethoxy)phenyl]urea]",< 2000
13,"CCc1ccc(NC(=O)Nc2cccc(-c3ccc(Cl)cn3)c2)cc1 [Compound 75, N-[3-(5-chloropyridin-2-yl)phenyl]-N′-(4-ethylphenyl)urea]",< 2000
14,"O=C(Nc1ccc(OC(F)F)cc1)Nc1ccc(C(F)(F)F)nc1 [Compound 76, N-[4-(difluoromethoxy)phenyl]-N′-[6-(trifluoromethyl)pyridin-3-yl]urea]",< 2000
15,"O=C(Nc1ccc(OC(F)F)cc1)Nc1ccc(C(F)(F)F)cc1 [Compound 77, N-[4-(difluoromethoxy)phenyl]-N′-[4-(trifluoromethyl)phenyl]urea]",< 2000
16,"Cc1cc(NC(=O)Nc2ccc(OC(F)F)cc2)nc(C)n1 [Compound 78, N-[4-(difluoromethoxy)phenyl]-N′-(2,6-dimethylpyrimidin-4-yl)urea]",< 2000
17,"COc1cc(NC(=O)Nc2ccc(OC(F)F)cc2)ncn1 [Compound 79, N-[4-(difluorornethoxy)phenyl]-N′-(6-methoxypyrimidin-4-yl)urea]",< 2000
18,"O=C(Nc1ccc(OC(F)F)cc1)Nc1ccc2c(c1)CCC2 [Compound 80, N-[4-(difluoromethoxy)phenyl]-N′-(2,3-dihydro-1H-inden-5-yl)urea]",< 2000
19,"O=C(Nc1ccc(OC(F)F)cc1)Nc1ccc(N2CCOCC2)c(Cl)c1 [Compound 81, N-(3-chloro-4-morpholin-4-ylphenyl)-N′-[4-(difluoromethoxy)phenyl]urea]",< 2000

row,Structure (SMILES),IC50 [nM]
1,"O=C(Nc1ccc(OC(F)F)cc1)Nc1ccc(-n2cnc(Cl)c2Cl)cc1 [Compound 82, N-[4-(4,5-dichloro-1H-imidazol-1-yl)phenyl]-N′-[4-(difluoromethoxy)phenyl]urea]",< 2000
2,"O=C(Nc1ccc(OC(F)F)cc1)Nc1ccc2c(c1)C(=O)CC2 [Compound 83, N-[4-(difluoromethoxy)phenyl]-N′-(3-oxo-2,3-dihydro-1H-inden-5-yl)urea]",< 2000
3,"COc1ccc(NC(=O)Nc2ccc(OC(F)F)cc2)cc1OC1CCCC1 [Compound 84, N-[3-(cyclopentyloxy)-4-methoxyphenyl]-N′-[4-(difluoromethoxy)phenyl]urea]",< 2000
4,"O=C(Nc1ccc(OC(F)F)cc1)Nc1cccc(Oc2ccccc2)c1 [Compound 85, N-[4-(difluoromethoxy)phenyl]-N′-(3-phenoxyphenyl)urea]",< 2000
5,"O=C(Nc1ccc(Oc2ccccc2)cc1)Nc1ccc(OC(F)F)cc1 [Compound 86, N-[4-(difluoromethoxy)phenyl]-N′-(4-phenoxyphenyl)urea]",< 2000
6,"COc1cc(NC(=O)Nc2ccc(OC(F)F)cc2)cc(C(F)(F)F)c1 [Compound 87, N-[4-(difluoromethoxy)phenyl]-N′-[3-methoxy-5-(trifluoromethyl)phenyl]urea]",< 2000
7,"O=C(Nc1ccc(OC(F)F)cc1)Nc1ccc2c(c1)OCCO2 [Compound 88, N-[4-(difluoromethoxy)phenyl]-N′-(2,3-dihydro-1,4-benzodioxin-6-yl)urea]",< 2000
8,"Cc1cc(C)cc(NC(=O)Nc2ccc(OC(F)F)cc2)c1 [Compound 89, N-[4-(difluoromethoxy)phenyl]-N′-(3,5-dimethylphenyl)urea]",< 2000
9,"Cc1ccc(NC(=O)Nc2ccc(OC(F)F)cc2)cc1C [Compound 90, N-[4-(difluoromethoxy)phenyl]-N′-(3,4-dimethylphenyl)urea]",< 2000
10,"COc1cc(NC(=O)Nc2ccc(OC(F)F)cc2)cc(OC)c1 [Compound 91, N-[4-(difluoromethoxy)phenyl]-N′-(3,5-dimethoxyphenyl)urea]",< 2000
11,"COc1ccc(NC(=O)Nc2ccc(OC(F)F)cc2)cc1OC [Compound 92, N-[4-(difluoromethoxy)phenyl]-N′-(3,4-dimethoxyphenyl)urea]",< 2000
12,"O=C(Nc1ccc(OC(F)F)cc1)Nc1cc(Cl)cc(Cl)c1 [Compound 93, N-(3,5-dichlorophenyl)-N′-[4-(difluoromethoxy)phenyl]urea]",< 2000
13,"O=C(Nc1ccc(OC(F)F)cc1)Nc1ccc(Cl)c(Cl)c1 [Compound 94, N-(3,4-dichlorophenyl)-N′-[4-(difluoromethoxy)phenyl]urea]",< 2000
14,"O=C(Nc1ccc(OC(F)F)cc1)Nc1cccc(OC(F)(F)F)c1 [Compound 95, N-[4-(difluoromethoxy)phenyl]-N′-[3-(trifluoromethoxy)phenyl]urea]",< 2000
15,"O=C(Nc1ccc(OC(F)F)cc1)Nc1ccc(OC(F)(F)F)cc1 [Compound 96, N-[4-(difluoromethoxy)phenyl]-N′-[4-(trifluoromethoxy)phenyl]urea]",< 2000
16,"CC(C)Oc1ccc(NC(=O)Nc2ccc(OC(F)F)cc2)cc1 [Compound 97, N-[4-(difluoromethoxy)phenyl]-N′-(4-isopropoxyphenyl)urea]",< 2000
17,"O=C(Nc1ccc(OC(F)F)cc1)Nc1cccc(-c2ccccc2)c1 [Compound 98, N-biphenyl-3-yl-N′-[4-(difluoromethoxy)phenyl]urea]",< 2000
18,"O=C(Nc1ccc(OC(F)F)cc1)Nc1ccc(-c2ccccc2)cc1 [Compound 99, N-biphenyl-4-yl-N′-[4-(difluoromethoxy)phenyl]urea]",< 2000
19,"COc1cc(NC(=O)Nc2ccc(OC(F)(F)F)cc2)ccc1OC(F)F [Compound 100, N-[4-(difluoromethoxy)-3-methoxyphenyl]-N′-[4-(trifluoromethoxy)phenyl]urea]",< 2000
